Positions of bridges follow the written chain, without caps; N, C: chain ends. Non-standard residues stand in square brackets, D forms with d. Residues, ends and D or L forms follow the SMILES beside them. Phe(3,4-F2) = N[C@@H](Cc1ccc(F)c(F)c1)C(=O)O; Phe(4-CH2NH2) = NCc1ccc(C[C@H](N)C(=O)O)cc1; Phe(3-Cl) = N[C@@H](Cc1cccc(Cl)c1)C(=O)O; Phe(4-Cl) = N[C@@H](Cc1ccc(Cl)cc1)C(=O)O; Phe(3-F) = N[C@@H](Cc1cccc(F)c1)C(=O)O; Phe(4-F) = N[C@@H](Cc1ccc(F)cc1)C(=O)O; Bta = N[C@@H](Cc1csc2ccccc12)C(=O)O; NMeF = CN[C@@H](Cc1ccccc1)C(=O)O; NMeNle = CCCC[C@H](NC)C(=O)O; Sar = CNCC(=O)O
Legend:
Human PD-L1/PD-1 = target: T1, Human PD-L1/PD-1 (Homo sapiens, UniProt Q9NZQ7); assay: HTRF PD-1-Ig/PD-L1-His binding assay (human PD-L1); settings: cluster symbol; read-out: HTRF IC50 cluster
T1 construct: made in house; host or cells: HEK293T
Summary of the method: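 The time-resolved fluorescence signal comes from Eu-cryptate anti-Ig (1 nM) and APC anti-His (20 nM) antibodies bound to a PD-1-Ig/PD-L1-His complex. Both partners lack transmembrane regions.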

[1] = target: T2, LK35.2-hPD-L1 cells / PE-labeled PD-1-Ig (Homo sapiens, UniProt Q9NZQ7); assay: LK35.2-hPD-L1 cell binding high-content screening assay; assay type: cell-based; settings: cluster symbol; cell line of CBA not given (LK35.2-hPD-L1 or 293T-hPD-L1); read-out: CBA IC50 cluster
T2 construct: expressed in transfected cells; host or cells: LK35.2 mouse B cell line
Summary of the method: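 Compound effect on PD-1/PD-L1 binding is measured by imaging cell-associated phycoerythrin signal. Human PD-1-Ig (PE on Ig tag, 1 nM final) is applied with compound to a murine B cell line overexpressing human PD-L1 for 1 h at 37 °C in serum-containing RPMI.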

T2 sequence (Q9NZQ7 19-290): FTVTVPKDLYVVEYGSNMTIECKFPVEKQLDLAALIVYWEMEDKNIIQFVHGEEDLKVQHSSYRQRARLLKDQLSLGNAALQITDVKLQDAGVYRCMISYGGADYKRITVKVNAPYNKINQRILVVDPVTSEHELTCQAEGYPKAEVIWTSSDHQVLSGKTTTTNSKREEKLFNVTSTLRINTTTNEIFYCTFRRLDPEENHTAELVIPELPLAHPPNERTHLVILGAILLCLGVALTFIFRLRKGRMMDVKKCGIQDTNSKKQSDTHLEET
T1 sequence (Q9NZQ7 with tags, fused parts or gaps): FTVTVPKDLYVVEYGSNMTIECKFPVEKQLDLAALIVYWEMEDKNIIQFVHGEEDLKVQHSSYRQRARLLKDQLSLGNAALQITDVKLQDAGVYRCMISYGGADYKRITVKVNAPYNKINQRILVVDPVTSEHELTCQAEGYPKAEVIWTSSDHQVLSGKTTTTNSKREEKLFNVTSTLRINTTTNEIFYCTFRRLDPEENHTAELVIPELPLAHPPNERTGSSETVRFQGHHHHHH

IC50 (Human PD-L1/PD-1) [nM]	IC50 [1] [nM]	SMILES
6.76 to 30.3	4.78 to 72.9	CCCC[C@H]1C(=O)N(C)CC(=O)N[C@@H](CC(=O)O)C(=O)N[C@@H](C(C)C)C(=O)N(C)[C@@H](Cc2ccccc2)C(=O)N[C@@H](Cc2ccc(O)cc2)C(=O)N(C)CC(=O)N[C@@H](Cc2csc3ccccc23)C(=O)N[C@@H](Cc2ccc(O)cc2)C(=O)N[C@@H](CC(C)C)C(=O)N[C@H](C(=O)NCC(N)=O)CSCC(=O)N[C@@H](Cc2cccc(Cl)c2)C(=O)N(C)[C@@H](Cc2ccccc2)C(=O)N1C [Example 3114] ({CH2CO}-[Phe(3-Cl)][NMeF][NMeNle][Sar]DV[NMeF]Y[Sar][Bta]YLCG-NH2; thioether N-13)
6.76 to 30.3	4.78 to 72.9	CCCC[C@H]1C(=O)N(C)CC(=O)N[C@@H](CC(=O)O)C(=O)N[C@@H](C(C)C)C(=O)N(C)[C@@H](Cc2ccccc2)C(=O)N[C@@H](Cc2ccc(O)cc2)C(=O)N(C)CC(=O)N[C@@H](Cc2csc3ccccc23)C(=O)N[C@@H](Cc2ccc(O)cc2)C(=O)N[C@@H](CC(C)C)C(=O)N[C@H](C(=O)NCC(N)=O)CSCC(=O)N[C@@H](Cc2ccc(Cl)cc2)C(=O)N(C)[C@@H](Cc2ccccc2)C(=O)N1C [Example 3115] ({CH2CO}-[Phe(4-Cl)][NMeF][NMeNle][Sar]DV[NMeF]Y[Sar][Bta]YLCG-NH2; thioether N-13)
6.76 to 30.3	4.78 to 72.9	CCCC[C@H]1C(=O)N(C)CC(=O)N[C@@H](CC(=O)O)C(=O)N[C@@H](C(C)C)C(=O)N(C)[C@@H](Cc2ccccc2)C(=O)N[C@@H](Cc2ccc(CN)cc2)C(=O)N(C)CC(=O)N[C@@H](Cc2csc3ccccc23)C(=O)N[C@@H](Cc2ccc(O)cc2)C(=O)N[C@@H](CC(C)C)C(=O)N[C@H](C(=O)NCC(N)=O)CSCC(=O)N[C@@H](Cc2cccc(Cl)c2)C(=O)N(C)[C@@H](Cc2ccccc2)C(=O)N1C [Example 3118] ({CH2CO}-[Phe(3-Cl)][NMeF][NMeNle][Sar]DV[NMeF][Phe(4-CH2NH2)][Sar][Bta]YLCG-NH2; thioether N-13)
6.76 to 30.3	4.78 to 72.9	CCCC[C@H]1C(=O)N(C)CC(=O)N[C@@H](CC(=O)O)C(=O)N[C@@H](C(C)C)C(=O)N(C)[C@@H](Cc2ccccc2)C(=O)N[C@@H](Cc2ccc(CN)cc2)C(=O)N(C)CC(=O)N[C@@H](Cc2csc3ccccc23)C(=O)N[C@@H](Cc2ccc(O)cc2)C(=O)N[C@@H](CC(C)C)C(=O)N[C@H](C(=O)NCC(N)=O)CSCC(=O)N[C@@H](Cc2ccc(Cl)cc2)C(=O)N(C)[C@@H](Cc2ccccc2)C(=O)N1C [Example 3119] ({CH2CO}-[Phe(4-Cl)][NMeF][NMeNle][Sar]DV[NMeF][Phe(4-CH2NH2)][Sar][Bta]YLCG-NH2; thioether N-13)
6.76 to 30.3	0.158 to 4.71	CCCC[C@H]1C(=O)N(C)CC(=O)N[C@@H](CC(=O)O)C(=O)N[C@@H](C(C)C)C(=O)N(C)[C@@H](Cc2ccccc2)C(=O)N[C@@H](Cc2ccc(CN)cc2)C(=O)N(C)CC(=O)N[C@@H](Cc2csc3ccccc23)C(=O)N[C@@H](Cc2ccc(O)cc2)C(=O)N[C@@H](CC(C)C)C(=O)N[C@H](C(=O)NCC(N)=O)CSCC(=O)N[C@@H](Cc2cccc(F)c2)C(=O)N(C)[C@@H](Cc2ccccc2)C(=O)N1C [Example 3121] ({CH2CO}-[Phe(3-F)][NMeF][NMeNle][Sar]DV[NMeF][Phe(4-CH2NH2)][Sar][Bta]YLCG-NH2; thioether N-13)

The remaining lines, values behind:

SMILES	IC50 (Human PD-L1/PD-1) [nM]	IC50 [1] [nM]
CCCC[C@H]1C(=O)N(C)CC(=O)N[C@@H](CC(=O)O)C(=O)N[C@@H](C(C)C)C(=O)N(C)[C@@H](Cc2ccccc2)C(=O)N[C@@H](Cc2ccc(O)cc2)C(=O)N(C)CC(=O)N[C@@H](Cc2csc3ccccc23)C(=O)N[C@@H](Cc2ccc(O)cc2)C(=O)N[C@@H](CC(C)C)C(=O)N[C@H](C(=O)NCC(N)=O)CSCC(=O)N[C@@H](Cc2ccc(F)cc2)C(=O)N(C)[C@@H](Cc2ccccc2)C(=O)N1C [Example 3116] ({CH2CO}-[Phe(4-F)][NMeF][NMeNle][Sar]DV[NMeF]Y[Sar][Bta]YLCG-NH2; thioether N-13)	0.385 to 6.74	0.158 to 4.71
CCCC[C@H]1C(=O)N(C)CC(=O)N[C@@H](CC(=O)O)C(=O)N[C@@H](C(C)C)C(=O)N(C)[C@@H](Cc2ccccc2)C(=O)N[C@@H](Cc2ccc(O)cc2)C(=O)N(C)CC(=O)N[C@@H](Cc2csc3ccccc23)C(=O)N[C@@H](Cc2ccc(O)cc2)C(=O)N[C@@H](CC(C)C)C(=O)N[C@H](C(=O)NCC(N)=O)CSCC(=O)N[C@@H](Cc2cccc(F)c2)C(=O)N(C)[C@@H](Cc2ccccc2)C(=O)N1C [Example 3117] ({CH2CO}-[Phe(3-F)][NMeF][NMeNle][Sar]DV[NMeF]Y[Sar][Bta]YLCG-NH2; thioether N-13)	6.76 to 30.3	4.78 to 72.9
CCCC[C@H]1C(=O)N(C)CC(=O)N[C@@H](CC(=O)O)C(=O)N[C@@H](C(C)C)C(=O)N(C)[C@@H](Cc2ccccc2)C(=O)N[C@@H](Cc2ccc(CN)cc2)C(=O)N(C)CC(=O)N[C@@H](Cc2csc3ccccc23)C(=O)N[C@@H](Cc2ccc(O)cc2)C(=O)N[C@@H](CC(C)C)C(=O)N[C@H](C(=O)NCC(N)=O)CSCC(=O)N[C@@H](Cc2ccc(F)cc2)C(=O)N(C)[C@@H](Cc2ccccc2)C(=O)N1C [Example 3120] ({CH2CO}-[Phe(4-F)][NMeF][NMeNle][Sar]DV[NMeF][Phe(4-CH2NH2)][Sar][Bta]YLCG-NH2; thioether N-13)	6.76 to 30.3	0.158 to 4.71
CCCC[C@H]1C(=O)N(C)CC(=O)N[C@@H](CC(=O)O)C(=O)N[C@@H](C(C)C)C(=O)N(C)[C@@H](Cc2ccccc2)C(=O)N[C@@H](Cc2ccc(CN)cc2)C(=O)N(C)CC(=O)N[C@@H](Cc2c[nH]c3ccccc23)C(=O)N[C@@H](Cc2ccc(O)cc2)C(=O)N[C@@H](CC(C)C)C(=O)N[C@H](C(=O)NCC(N)=O)CSCC(=O)N[C@@H](Cc2cccc(Cl)c2)C(=O)N(C)[C@@H](Cc2ccccc2)C(=O)N1C [Example 3122] ({CH2CO}-[Phe(3-Cl)][NMeF][NMeNle][Sar]DV[NMeF][Phe(4-CH2NH2)][Sar]WYLCG-NH2; thioether N-13)	6.76 to 30.3	4.78 to 72.9
CCCC[C@H]1C(=O)N(C)CC(=O)N[C@@H](CC(=O)O)C(=O)N[C@@H](C(C)C)C(=O)N(C)[C@@H](Cc2ccccc2)C(=O)N[C@@H](Cc2ccc(CN)cc2)C(=O)N(C)CC(=O)N[C@@H](Cc2c[nH]c3ccccc23)C(=O)N[C@@H](Cc2ccc(O)cc2)C(=O)N[C@@H](CC(C)C)C(=O)N[C@H](C(=O)NCC(N)=O)CSCC(=O)N[C@@H](Cc2ccc(F)cc2)C(=O)N(C)[C@@H](Cc2ccccc2)C(=O)N1C [Example 3123] ({CH2CO}-[Phe(4-F)][NMeF][NMeNle][Sar]DV[NMeF][Phe(4-CH2NH2)][Sar]WYLCG-NH2; thioether N-13)	6.76 to 30.3	0.158 to 4.71
CCCC[C@H]1C(=O)N(C)CC(=O)N[C@@H](CC(=O)O)C(=O)N[C@@H](C(C)C)C(=O)N(C)[C@@H](Cc2ccccc2)C(=O)N[C@@H](Cc2ccc(CN)cc2)C(=O)N(C)CC(=O)N[C@@H](Cc2c[nH]c3ccccc23)C(=O)N[C@@H](Cc2ccc(O)cc2)C(=O)N[C@@H](CC(C)C)C(=O)N[C@H](C(=O)NCC(N)=O)CSCC(=O)N[C@@H](Cc2cccc(F)c2)C(=O)N(C)[C@@H](Cc2ccccc2)C(=O)N1C [Example 3124] ({CH2CO}-[Phe(3-F)][NMeF][NMeNle][Sar]DV[NMeF][Phe(4-CH2NH2)][Sar]WYLCG-NH2; thioether N-13)	6.76 to 30.3	0.158 to 4.71
CCCC[C@H]1C(=O)N(C)CC(=O)N[C@@H](CC(=O)O)C(=O)N[C@@H](C(C)C)C(=O)N(C)[C@@H](Cc2ccccc2)C(=O)N[C@@H](Cc2ccc(O)cc2)C(=O)N(C)CC(=O)N[C@@H](Cc2c[nH]c3ccccc23)C(=O)N[C@@H](Cc2ccc(O)cc2)C(=O)N[C@@H](CC(C)C)C(=O)N[C@H](C(=O)NCC(N)=O)CSCC(=O)N[C@@H](Cc2cccc(F)c2)C(=O)N(C)[C@@H](Cc2ccccc2)C(=O)N1C [Example 3125] ({CH2CO}-[Phe(3-F)][NMeF][NMeNle][Sar]DV[NMeF]Y[Sar]WYLCG-NH2; thioether N-13)	6.76 to 30.3	0.158 to 4.71
CCCC[C@H]1C(=O)N(C)CC(=O)N[C@@H](CC(=O)O)C(=O)N[C@@H](C(C)C)C(=O)N(C)[C@@H](Cc2ccccc2)C(=O)N[C@@H](Cc2ccc(O)cc2)C(=O)N(C)CC(=O)N[C@@H](Cc2c[nH]c3ccccc23)C(=O)N[C@@H](Cc2ccc(O)cc2)C(=O)N[C@@H](CC(C)C)C(=O)N[C@H](C(=O)NCC(N)=O)CSCC(=O)N[C@@H](Cc2ccc(F)c(F)c2)C(=O)N(C)[C@@H](Cc2ccccc2)C(=O)N1C [Example 3130] ({CH2CO}-[Phe(3,4-F2)][NMeF][NMeNle][Sar]DV[NMeF]Y[Sar]WYLCG-NH2; thioether N-13)	6.76 to 30.3	0.158 to 4.71
CCCC[C@H]1C(=O)N(C)CC(=O)N[C@@H](CC(=O)O)C(=O)N[C@@H](C(C)C)C(=O)N[C@@H](Cc2cccc(Cl)c2)C(=O)N[C@@H](Cc2ccc(O)cc2)C(=O)N(C)CC(=O)N[C@@H](Cc2c[nH]c3ccccc23)C(=O)N[C@@H](Cc2ccc(O)cc2)C(=O)N[C@@H](CC(C)C)C(=O)N[C@H](C(=O)NCC(N)=O)CSCC(=O)N[C@@H](Cc2ccccc2)C(=O)N(C)[C@@H](Cc2ccccc2)C(=O)N1C [Example 3131] ({CH2CO}-F[NMeF][NMeNle][Sar]DV[Phe(3-Cl)]Y[Sar]WYLCG-NH2; thioether N-13)	> 30.5	> 74.3

From US9850283B2, “Macrocyclic inhibitors of the PD-1/PD-L1 and CD80(B7-1)/PD-L1 protein/protein interactions” (BRISTOL-MYERS SQUIBB COMPANY, priority 2013, dated 2017)
